US7449545B2, “Antimicrobial bolisin peptides” (IPF Pharmaceuticals GmbH, priority 2001, dated 2008)
Ends that are not written are not given here.

How the values were obtained:
Format in all cases: cell-based
[1] = tested on: Pseudomonas aeruginosa ATCC 9027; details: Mueller Hinton Broth; complete growth inhibition not achieved
From the text: (§1) The bolisin analogues of the present invention were examined for their suitability as antibiotic therapeutical agents by means of various biological tests. Thus, the chemically synthesized peptides were examined for their antimicrobial effectiveness against three Gram-positive and three Gram-negative bacterial strains as well as against a yeast.
(§2) The following microorganisms were used: • Gram-positive: Staphylococcus aureus ATCC 25923 • Enterococcus faecalis ATCC 51299 (vancomycin-resistant) • Streptococcus pneumoniae DSM 11865 (penicillin-resistant) • Gram-negative: Escherichia coli ATCC 25922 • Pseudomonas aeruginosa ATCC 9027 • Klebsiella pneumoniae ATCC 10031 • Yeast: Candida albicans ATCC 10231
(§3) The antibiotic activity of bolisin analogues was examined by determining the minimum inhibition concentration. The minimum inhibition concentration of an analogue designates the lowest peptide concentration which is required to inhibit the growth of microorganisms completely after an incubation time of 18±2 h. This method allows to obtain a quantitative result about the antimicrobial potency of the peptides. These examinations were performed by analogy with the recommendations (M7-A3) edited by the NCCLS (National Committee for Clinical Laboratory Standards) by applying a dilution test in a liquid medium using chemically synthesized peptides (peptide sequences according to claims 1 to 3). Mueller Hinton Broth was used as the test medium according to the NCCLS recommendations unless indicated otherwise. […] The minimum inhibition concentrations are stated in [μg/ml].
(§4) A complete growth inhibition could not be achieved in this case. For determining the minimum inhibition concentration, the following microorganisms were used: • 1. Staphylococcus aureus ATCC 25923 • 2. Enterococcus faecalis ATCC 51299 (vancomycin-resistant) • 3. Streptococcus pneumoniae DSM 11865 (penicillin-resistant) • 4. Escherichia coli ATCC 25922 • 5. Pseudomonas aeruginosa ATCC 9027 • 6. Klebsiella pneumoniae ATCC 10031 • 7. Candida albicans ATCC 10231

[2] = tested on: Escherichia coli ATCC 25922; details: ATCC 25922, 2 h
From the text: as §1, §2
as §3, with “The minimum inhibition concentration of an analogue designates the lowest peptide concentration which is required to inhibit the growth of microorganisms completely after an incubation time of 18±2 h.” left out
as §4

[3] = tested on: Staphylococcus aureus ATCC 25923; details: ATCC 25923, 2 h
From the text: as §1, §2
as §3, with “The minimum inhibition concentration of an analogue designates the lowest peptide concentration which is required to inhibit the growth of microorganisms completely after an incubation time of 18±2 h.” left out
as §4

[4] = tested on: Streptococcus pneumoniae DSM 11865 (penicillin-resistant); details: DSM 11865, 2 h
From the text: as §1, §2
as §3, with “The minimum inhibition concentration of an analogue designates the lowest peptide concentration which is required to inhibit the growth of microorganisms completely after an incubation time of 18±2 h.” left out
as §4

[5] = tested on: Candida albicans ATCC 10231; details: for minimum inhibition concentration: ATCC 10231, 2 h; for peptide concentration giving 75% inhibition of growth (value in parentheses): Mueller Hinton Broth, complete growth inhibition not achieved
From the text: as §1, §2
as §3, with “The minimum inhibition concentration of an analogue designates the lowest peptide concentration which is required to inhibit the growth of microorganisms completely after an incubation time of 18±2 h.” left out
as §4

[6] = tested on: Klebsiella pneumoniae ATCC 10031; details: ATCC 10031, 2 h
From the text: as §1, §2
as §3, with “The minimum inhibition concentration of an analogue designates the lowest peptide concentration which is required to inhibit the growth of microorganisms completely after an incubation time of 18±2 h.” left out
as §4

[7] = tested on: Enterococcus faecalis ATCC 51299 (vancomycin-resistant); details: ATCC 51299, 2 h
From the text: as §1, §2
as §3, with “The minimum inhibition concentration of an analogue designates the lowest peptide concentration which is required to inhibit the growth of microorganisms completely after an incubation time of 18±2 h.” left out
as §4

Substance	peptide concentration giving 75% inhibition of growth (value in parentheses) [1]	minimum inhibition concentration [2] [µg/mL]	minimum inhibition concentration [3] [µg/mL]	minimum inhibition concentration [4] [µg/mL]	minimum inhibition concentration [5] [µg/mL]	minimum inhibition concentration [6] [µg/mL]	minimum inhibition concentration [7] [µg/mL]	peptide concentration giving 75% inhibition of growth (value in parentheses) [5]
YIVYKIRWARKRRKAL [BOL-72, YIVYKIRWARKRRKAL]	(12.5) μg/ml	100	75	18.75	18.75	18.75	25	–
YIVYKIRWARKRSKALK-OH [BOL-49, YIVYKIRWARKRSKALK]	(12.5) μg/ml	50	75	18.75	18.75	18.75	25	–
KYIVYKIRSAWKRSKALK-OH [BOL-85, KYIVYKIRSAWKRSKALK]	(37.5) μg/ml	>300	>300	300	75	150	300	–
YIVYKIRSAWKRRK-OH [BOL-69, YIVYKIRSAWKRRK]	(200) μg/ml	150	300	200	37.5	300	150	–
YIVYKIRWAKKRWKALK-OH [BOL-60, YIVYKIRWAKKRWKALK]	(18.75) μg/ml	100	50	50	–	18.75	25	(18.75) μg/ml
YIVYKIRWARKRRK-OH [BOL-73, YIVYKIRWARKRRK]	(9.375) μg/ml	50	37.5	18.75	9.375	18.75	25	–
YIVYKIRRAWKRSKALK-OH [BOL-53, YIVYKIRRAWKRSKALK]	(75) μg/ml	200	150	200	–	100	200	(37.5) μg/ml
YIVYKIRWAWKRSKALK-OH [BOL-47, YIVYKIRWAWKRSKALK]	(25) μg/ml	18.75	18.75	18.75	18.75	9.375	25	–
YIVYKIRSARKRWKALK-OH [BOL-46, YIVYKIRSARKRWKALK]	(100) μg/ml	200	300	200	150	150	200	–
YIVYKIRSAWKRWK-OH [BOL-70, YIVYKIRSAWKRWK]	(100) μg/ml	100	100	150	37.5	75	150	–
